Here are results for one molecule from US20240058308A1, “TREATMENT AND PREVENTION OF DRY MACULAR DEGENERATION” (The Regents of the University of Michigan, priority 2021, published 2024).

Values after ≈ are worked out from the molar mass of the structure shown.

The subject of series [1] is primary human fetal RPE (hfRPE) culture. As to the kind of experiment: Autophagy flux assay with NH4Cl lysosomal alkalinization. Type of series: cell-based. The following applies: inducer 22.5 hours, then 25 mM NH4Cl for final 1.5 hours.
Series [2] has the same test system. As to the kind of experiment: Autophagy induction by LC3 lipidation (LC3-II/LC3-I ratio) on Western blot. The class given is cell-based. The following applies: 24 hours exposure, vs vehicle (DMSO). Here is the method: (§1) Cell cultures were exposed to each putative autophagy inducer at a concentration indicated in Table 1 for 24 hours, lysed with 36 μL of SDS sample buffer with β-mercaptoethanol, with 15 μg of lysate loaded on a 4-15% gradient gel followed by transfer to a PVDF membrane. Blots were incubated with 1:1000 of LC3A/B antibody (Cell Signaling Technology; #4108s, RRID:AB_2137703) overnight. Quantifying LC3-II/LC3-I ratio is a well-accepted method for det 306 ermining autophagy induction [Ref. 44; incorporated by reference in its entirety], and this ratio was quantified in a non-saturated, linear range using the Azure c500 Imaging System (Azure Biosystems, Dublin, CA, USA) and a combination of AzureSpot and ImageJ software. The data in FIG. 2A are not normalized, whereas the data in FIGS. 2b and 1c are normalized to the average combined value of the vehicle and drug groups within each experimental repeat. The extreme pigmentation of human fetal cultures, combined with the destruction of the LC3 epitope with melanin bleaching protocols, makes detection of LC3 by microscopy in hfRPE difficult. A range of LC3 staining and puncta quantification protocols specifically adapted to pigmented hfRPE culture were employed [Ref. 43; incorporated by reference in its entirety]. At least five fields of view were randomly chosen and analyzed per experimental replicate for LC3 immunocytochemistry.
To test for autophagy induction, lipidation of the core autophagy protein LC3 was measured by mobility shift on Western blots 24 hours after each compound was added to hfRPE cultures [Ref. 44; incorporated by reference in its entirety]. […] Of the more than 30 putative autophagy inducers tested, only five produced an increased ratio of LC3-II/LC3-I, consistent with increased autophagy (FIG. 2a).
Autophagy induction was measured by LC3-II/LC3-I Ratios on Western Blot (standard method for autophagy induction) (FIG. 18A-C). Drugs were applied to primary human RPE culture for 24 hours.
(In western blotting, separated proteins are transferred to a membrane and probed.)

Series [3] has as its system RPE of mouse eye. Nature of the series: Intravitreal injection in mouse eyes, autophagy by LC3II/LC3I ratio of lysates. The class given is in vivo. The following applies: four concentrations up to 500 uM, multiple timepoints, DMSO in other eye. Here is the method: Experiments were conducted during development of embodiments herein to assay for autophagy in the mouse eye. Experiments were conducted to measure autophagy by giving an intraperitoneal injection of leupeptin, followed by assaying for LC3 puncta in an RPE flatmount of a GFP-LC3 mouse. Background from GFP-LC3 debris deposited on the RPE when the retina was peeled off for the flat mount prevented signal detection. A biochemical assay was then employed for autophagy induction, measuring an increase in the lipidation of the autophagy core protein LC3 (lipidated LC3=LC3-II, unlipidated LC3=LC3-I, so higher LC3-II/LC3-I ratio indicates autophagy induction). Sufficient signal as obtained. […] Harvesting techniques were also optimized for collecting RPE from mouse eyes.
Experiments were conducted during development of embodiments herein to establish a positive control for autophagy induction. […] Autophagy induction was measured at 4 different concentrations of Torin (500 nm, 5 um, 50 um, 500 um) and at 5 different timepoints after injection (1 day, 3 days, 7 days, 14 days, 28 days). […] Nevertheless, the ability of intravitreal injections of FLBZ to induce autophagy in the RPE was assessed. In preparation for injecting FLBZ intravitreally into mice, solubility assays were performed and the maximum amount of FLBZ that can be injected without it crashing out of solution in the vitreous was determined. […]

A short description of series [4]: Solubility assays of DMSO stock mixed with PBS (simulating the vitreous). Type of series: physicochemical. Here is the method: Experiments were conducted during development of embodiments herein to establish a positive control for autophagy induction. The direct mTOR inhibitor Torin1 was selected over rapamycin/sirolimus as the positive control, based on the capacity of Torin1 to induce autophagy in primary culture more strongly and more consistently than rapamycin. The experimental set-up involved injecting one eye with Torin and the other eye with the DMSO vehicle. Autophagy induction was measured at 4 different concentrations of Torin (500 nm, 5 um, 50 um, 500 um) and at 5 different timepoints after injection (1 day, 3 days, 7 days, 14 days, 28 days). […] Nevertheless, the ability of intravitreal injections of FLBZ to induce autophagy in the RPE was assessed. In preparation for injecting FLBZ intravitreally into mice, solubility assays were performed and the maximum amount of FLBZ that can be injected without it crashing out of solution in the vitreous was determined. […] This helped inform maximal concentrations of flubendazole that could be injected intravitreally. Four different concentrations were injected, up to the maximum solubility of FLBZ, and autophagy induction was assayed over a timeframe ranging from 1 week to 4 weeks after injection.

In series [5] the test system is primary human fetal RPE (hfRPE) culture. Nature of the series: Autophagy induction by LC3 puncta formation (immunocytochemistry). The class given is cell-based. The note with it: 24 hours exposure. The procedure:
as §1
Autophagy induction was confirmed by assaying the formation of LC3-positive puncta (autophagosomes) by immunocytochemistry [Ref. 44; incorporated by reference in its entirety]. Puncta formation was quantified in automated/unbiased fashion using a customized macro in the Fiji/ImageJ platform [Ref. 43; incorporated by reference in its entirety].
Autophagy induction was measured by LC3 puncta on immunocytochemistry (standard method for autophagy induction) (FIG. 19). Drugs applied to primary human RPE culture for 24 hours.

Series [6] relates to primary hfRPE culture. Nature of the series: Trans-epithelial electrical resistance (TEER), tight-junction integrity. Type of series: cell-based. The note with it: TEER measured after 20 FLBZ feedings, after UAM accumulation. The procedure:
TEER and cell death were measured [Ref 51; incorporated by reference in its entirety]. For cell death assays, maximum possible LDH release per Transwell was measured immediately after 2 μL of the final experimental supernate was taken. The Transwell and supernate was then treated with 0.2% Triton X-100 for 15 minutes at 37° C. followed by collection of an additional 2 μL of supernate. Each experimental LDH release value was first normalized to total LDH release from the vehicle condition. Additionally, all TEER and LDH release measurements were normalized to the vehicle group at the zero-hour timepoint.
To evaluate the safety of D4476 and FLBZ, trans-epithelial electrical resistance (TEER) was measured, a measure of tight-junction integrity, in RPE cultures after prolonged exposure to each compound. As well-formed tight-junctions require myriad cell processes to be optimally coordinated, assessing TEER provides an easily measurable, ongoing, and noninvasive marker for general RPE cell health [Ref. 45; incorporated by reference in its entirety]. […] Lactate dehydrogenase (LDH) release, a combined marker of necrotic and late-stage apoptotic cell death [Refs. 47,48; incorporated by reference in their entireties], was reduced compared to vehicle for all four verified RPE autophagy inducers (FIG. 3b). Exposure of RPE cultures to the oxidant tert-butyl hydroperoxide confirmed the ability of the assay to detect cell death (FIG. 10).
Transepithelial Electrical Resistance (TEER) was tested (FIGS. 16 and 17). TEER is a sensitive measure of toxicity (lower the TEER, the more toxic the drug is). Drugs were added daily and measurements made daily for at least 4-8 days.

In the case of `COC(=O)Nc1nc2cc(C(=O)c3ccc(F)cc3)ccc2[nH]1` [FLBZ, Flubendazole], the “Autophagy flux: LC3-II/LC3-I ratio after NH4Cl” value in series [1] is on record as “induces autophagy flux”. Moreover, in series [2], the “LC3-II/LC3-I ratio (autophagy induction)” value is “Induction of autophagy”. Further, the “Autophagy induction in RPE after intravitreal injection (LC3II/LC3I ratio)” value in series [3] is reported as “no convincing evidence for autophagy induction”. The solubility in series [4] (DMSO stock solution mixed with PBS (simulating the vitreous), aqueous with cosolvent or surfactant or cyclodextrin, kinetic from dmso stock, delivered in 1 ul of DMSO, read-out: Maximum soluble concentration for intravitreal injection) is 500 µM (≈ 157 µg/mL). Further, the “Precipitation of DMSO stock solution when mixed with PBS” value in series [4] (Torin 1 mM stock mixed 1:1 with PBS, flubendazole 3 mM stock) is listed as “crashed out when mixed with PBS unless at a dilution of 1:20 or more”. The “LC3 puncta formation (autophagy induction)” value in series [5] is listed as “induced autophagy”. Moreover, the “Cell health by tight-junction integrity (TEER) in cultures with established UAM” value in series [6] is listed as “improved cell health”.
